Assay results as given in the supplement of paper PMC10307832.

Tests used:
Assay in all cases: relative viability (nuclei count vs DMSO), 5 days (fraction); higher = more cells survive
[1] = tested on: NCI-H2228
Method in brief: (§1)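 Relative viability was taken as the ratio of nuclei in treated wells to nuclei in vehicle wells. Lung cancer cell lines in 1536-well plates received compounds by pin tool one day after seeding, either one drug alone or a fixed anchor-drug dose plus five library-drug doses (not always all listed) in √10 steps. Nuclei were counted on 4× images after 5 days of treatment, and values are medians of duplicate plates.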

[2] = tested on: ChaGo-K-1
Method in brief: as §1

[3] = tested on: COR-L23
Method in brief: as §1

[4] = tested on: NCI-H1993
Method in brief: as §1

[5] = tested on: NCI-H1734
Method in brief: as §1

[6] = tested on: NCI-H2170
Method in brief: as §1

[7] = tested on: NCI-H2342
Method in brief: as §1

[8] = tested on: HOP-62
Method in brief: as §1

[9] = tested on: RERF-LC-KJ
Method in brief: as §1

[10] = tested on: NCI-H1395
Method in brief: as §1

[11] = tested on: NCI-H2085
Method in brief: as §1

COCC1(CO)C(=O)C2CCN1CC2 (centres undefined) [PRIMA-1MET] + N=C(N)NC(=N)NCCc1ccccc1 [Phenformin] (partner 250 µM)
relative viability ([1]; first compound 0.6325 µM): 0.278
relative viability ([1]; first compound 2 µM): 0.336
relative viability ([1]; first compound 6.325 µM): 0.213
relative viability ([1]; first compound 20 µM): 0.0266
relative viability ([2]; first compound 0.2 µM): 0.481
relative viability ([2]; first compound 0.6325 µM): 0.439
relative viability ([2]; first compound 2 µM): 0.514
relative viability ([2]; first compound 6.325 µM): 0.503
relative viability ([2]; first compound 20 µM): 0.459
relative viability ([3]; first compound 0.2 µM): 0.554
relative viability ([3]; first compound 0.6325 µM): 0.413
relative viability ([3]; first compound 2 µM): 0.477
relative viability ([3]; first compound 6.325 µM): 0.343
relative viability ([3]; first compound 20 µM): 0.0169
relative viability ([4]; first compound 0.2 µM): 0.503
relative viability ([4]; first compound 0.6325 µM): 0.526
relative viability ([4]; first compound 2 µM): 0.496
relative viability ([4]; first compound 6.325 µM): 0.544
relative viability ([4]; first compound 20 µM): 0.57
relative viability ([5]; first compound 0.2 µM): 0.385
relative viability ([5]; first compound 0.6325 µM): 0.328
relative viability ([5]; first compound 2 µM): 0.324
relative viability ([5]; first compound 6.325 µM): 0.361
relative viability ([5]; first compound 20 µM): 0.058
relative viability ([6]; first compound 0.2 µM): 0.418
relative viability ([6]; first compound 0.6325 µM): 0.416
relative viability ([6]; first compound 2 µM): 0.38
relative viability ([6]; first compound 6.325 µM): 0.405
relative viability ([6]; first compound 20 µM): 0.376
relative viability ([7]; first compound 0.2 µM): 0.58
relative viability ([7]; first compound 0.6325 µM): 0.667
relative viability ([7]; first compound 2 µM): 0.462
relative viability ([7]; first compound 6.325 µM): 0.608
relative viability ([7]; first compound 20 µM): 0.543
relative viability ([8]; first compound 0.2 µM): 0.668
relative viability ([8]; first compound 0.6325 µM): 0.686
relative viability ([8]; first compound 2 µM): 0.648
relative viability ([8]; first compound 6.325 µM): 0.694
relative viability ([8]; first compound 20 µM): 0.311
relative viability ([9]; first compound 0.2 µM): 0.493
relative viability ([9]; first compound 0.6325 µM): 0.432
relative viability ([9]; first compound 2 µM): 0.449
relative viability ([9]; first compound 6.325 µM): 0.52
relative viability ([9]; first compound 20 µM): 0.427
relative viability ([10]; first compound 0.2 µM): 0.469
relative viability ([10]; first compound 0.6325 µM): 0.414
relative viability ([10]; first compound 2 µM): 0.416
relative viability ([10]; first compound 6.325 µM): 0.441
relative viability ([10]; first compound 20 µM): 0.395
relative viability ([11]; first compound 0.2 µM): 0.727
relative viability ([11]; first compound 0.6325 µM): 0.62
relative viability ([11]; first compound 2 µM): 0.432
relative viability ([11]; first compound 6.325 µM): 0.449
relative viability ([11]; first compound 20 µM): 0.272
